This is an account of results in patent US11958829B1, “3-(4,5-diphenyl-2-(pyridin-3-YL)-1H-imidazol-1-YL)-N,N-dimethylpopan-1-amine as an antimicrobial compound” (KING FAISAL UNIVERSITY, priority 2023, dated 2024).

In one data set the test system is St. Aereus. Briefly: Anti-microbial screening, agar dilution. Format: cell-based. The following applies: after 10, 20, 40 and 60 minutes at all dilutions, 1:100, 1:200, 1:400, and 1:800. The method, then:
(§1) The antibacterial properties of the present compound were studied by the method of agar dilution. Test solutions of the compound were prepared in a concentration of 1% using dimethylformamide as a solvent then they are diluted in physiological solution to obtain the final experimental dilutions 1:100, 1:200, 1:400, and 1:800. The effect of these substances were compared with furacillin in a controllable study. The testing microbes used were gram positive bacteria St. Aereus, gram negative bacteria E. Coli, Ps. aeruginosa and Candida albicans fungi were taken. The experiments used for this survey were meat-pentonlu agar (EPA) for cultivation of bacteria and Saburo environment for fungi. Each experiment used 1 ml of test solution on each plate 500 min. Add 2 drops of emulsified with microbes feel. All experimental samples were taken from the agar after 10, 20, 40, and 60 minutes in the environment on the basis of Patrk planted. Bacteria were cultivated at a temperature of 37° C. for 1 day and the mushroom was kept in a thermostat for […] at a temperature of 28° C. Then results were checked.

In another data set the test system is E. Coli. The data set is described as follows: Anti-microbial screening, agar dilution. The data set is classed as cell-based. The following applies: after 10, 20, 40 and 60 minutes at all dilutions, 1:100, 1:200, 1:400, and 1:800. The method, then: as §1
A further data set concerns Candida albicans. The data set is described as follows: Anti-microbial screening, agar dilution. The following applies: after 10, 20, 40 and 60 minutes at all dilutions, 1:100, 1:200, 1:400, and 1:800. The data set is classed as cell-based. The method, then: as §1
The subject of another data set is Ps. Aeroqonaza. The data set is described as follows: Anti-microbial screening, agar dilution. The data set is classed as cell-based, Ps. aeruginosa. As to conditions: after 10, 20, 40 and 60 minutes at all dilutions, 1:100, 1:200, 1:400, and 1:800. The method, then: as §1

The compound `CN(C)CCCn1c(-c2cccnc2)nc(-c2ccccc2)c1-c1ccccc1` [3-(4,5-Diphenyl-2-(pyridin-3-yl)-1H-imidazol-1-yl)-N,N-dimethylpropan-1-amine] came in with a melting point of 145 to 147 °C. In the data set with St. Aereus, the “inhibition activity, St. Aereus” value was “highest inhibition activity”. Moreover, in the data set on E. Coli, the “inhibition activity, E. Coli” value is reported as “highest inhibition activity”. For the same compound, the “inhibition activity, Candida albicans” value with Candida albicans is reported as “highest inhibition activity”. Further, in the data set on Ps. Aeroqonaza, the “inhibition activity, Ps. aeruginosa” value is “highest inhibition activity”.
